Results on one molecule are retold here after patent US6942876B2, “Analgesic compositions comprising anti-epileptic compounds and methods of using same” (Warner-Lambert Company, priority 1997, dated 2005).

This assay concerns Carrageenan-induced thermal hyperalgesia. Kind of assay: carrageenan rat footpad thermal hyperalgesia test (Hargreaves test). The format is in vivo.

The structures appear in SMILES notation.

Description: In this example, gabapentin, naproxen sodium, and the combination of gabapentin and naproxen sodium were evaluated in a standard rat carrageenan footpad thermal hyperalgesia assay. This assay utilizes an extract of seaweed (carrageenan) that, when injected into the footpad of test animals, causes a sterile inflammation, thereby lowering the pain threshold.
Male Sprague-Dawley rats (200-250 g, Sasco Laboratories) were used. Rats were group housed 5/cage on a 12-hour light:dark cycle with free access to food and water. Rats received only one dose of a drug or drug combination. All drugs were administered orally by gavage.
Dose-effect curves were first determined for (1) gabapentin by itself and (2) a prototypic NSAID (e.g., naproxen) by itself The ED50 value and 95% confidence limits of each agent was determined, as was the time to peak effect. […]
Carrageenan-induced thermal hyperalgesia: Rats were acclimated to a testing chamber whose glass floor was maintained at 25° C. Thirty minutes later, a high intensity beam of light was focused through the glass on the ventral surface of each hindpaw, and the latency to reflex withdrawal of the paw from the light beam was measured to the nearest 0.1 second. […]
Data were expressed as the mean ±SEM. […]

On to `COc1ccc2cc([C@H](C)C(=O)O)ccc2c1` [Naproxen sodium, naproxen sodium], for which the anti-hyperalgesic action entry (PO, gabapentin 3-100 mg/kg, naproxen sodium 0.3-30 mg/kg, fixed-ratio combinations at various dosages) is reported as “anti-hyperalgesic actions”. For the same molecule, the ED50 (usually the dose that gives a 50% effect, or the effect in half of the subjects) (Rattus norvegicus, 2 h, single drug, oral gavage, male Sprague-Dawley rats, paw flick latency 120 min after dosing, 95% confidence limits in parentheses) worked out at 0.36 mg/kg.
